From patent US12479877B2, “Methods for purifying steviol glycosides and uses of the same” (PureCircle Sdn. Bhd., priority 2010, dated 2025)

Key:
panelists = assay: Sensory properties in acidified water (pH 3.0) at 500 mg/L, 20 panelists; type: in vivo, human; conditions: 500 ppm, acidified water pH 3.0, 20 panelists
Protocol: The sensory properties of Reb X were evaluated in acidified water (pH 3.0 by phosphoric acid) at 500 mg/L concentration by 20 panelists.

one experienced taster = assay: Isosweetness determination of Reb X in citric buffer against sucrose controls; type: in vivo, human; conditions: for Estimated % Sweetness Equivalence in Citric Buffer at 4° C.: citric buffer pH 3.1, 4° C.; for Estimated % Sweetness Equivalence in Citric Buffer at RT: citric buffer pH 3.1, RT
Protocol: The isosweetness levels of Reb X in a citric buffer system at room temperature and 4° C. were evaluated. A 600 ppm stock solution of Reb X was prepared by adding a mass of 0.15 g into a 250 mL sample of citric buffer (CB) solution. The mixture was moderately stirred at warmer temperature (up to ca. 52° C.) on a heated stirrer for about 15-20 minutes and then cooled. The citric buffer was prepared by adding 1.6 g citric acid, 0.6 g potassium citrate and 0.253 g sodium benzoate in 1 L of carbon-treated water. The pH of the mixture was 3.1. Seven diluted Reb X solutions at […], 25, 50, 100, 200, 300, 400 and 500 ppm were prepared by adding a 2.08, 4.17, 8.33, 16.67, 25.00, 33.33 and 41.67 mL Reb X stock solution, respectively, into each 50 mL solution of CB. The controls of 0.75%, 2%, 4%, 6%, 8%, 10% and 15% sucrose equivalence (SE) were also prepared by adding sugar (w/v) into the CB. The mixtures were moderately stirred and then ready for the isosweetness determination test. The Reb X samples were then evaluated against the control sugar samples in citric buffer at room temperature (RT) and 4° C. (in an ice bath) by one experienced taster for an isosweetness determination using the controlled, multi-sip and swallow taste method.

Compound: C=C1C[C@@]23CCC4[C@](C)(C(=O)OC5OC(CO)C(O)C(OC6OC(CO)C(O)C(O)C6O)C5OC5OC(CO)C(O)C(O)C5O)CCC[C@@]4(C)[C@@H]2CCC1(OC1OC(CO)C(O)C(OC2OC(CO)C(O)C(O)C2O)C1OC1OC(CO)C(O)C(O)C1O)C3 (stereo partly drawn) [Reb X, (13-[2-O-β-D-glucopyranosyl-3-O-β-D-glucopyranosyl-β-D-glucopyranosyl)oxy] ent kaur-16-en-19-oic acid-[2-O-β-D-glucopyranosyl-3-O-β-D-glycopyranosyl) ester]
- Astringent taste: Number of panelists detected the attribute (panelists): 0
- Bitter taste: Number of panelists detected the attribute (panelists): 0
- Licorice taste: Number of panelists detected the attribute (panelists): 0
- Overall evaluation: Satisfactory (number of panelists of 20) (panelists): (20 of 20)
- Quality of sweet taste: Clean (number of panelists of 20) (panelists): Clean (20
- Sweet Aftertaste: Number of panelists detected the attribute (panelists): 0
- Taste profile compared to already known steviol glycosides (panelists): superior taste profile
- Estimated % Sweetness Equivalence in Citric Buffer at 4° C. (one experienced taster; Reb X 12.5 ppm): 0.75%
- Estimated % Sweetness Equivalence in Citric Buffer at RT (one experienced taster; Reb X 12.5 ppm): 0.5%
- Estimated % Sweetness Equivalence in Citric Buffer at 4° C. (one experienced taster; Reb X 25 ppm): 1.5%
- Estimated % Sweetness Equivalence in Citric Buffer at RT (one experienced taster; Reb X 25 ppm): 1.0-1.5%
- Estimated % Sweetness Equivalence in Citric Buffer at 4° C. (one experienced taster; Reb X 50 ppm): 3.0-3.5%
- Estimated % Sweetness Equivalence in Citric Buffer at RT (one experienced taster; Reb X 50 ppm): 3.25-3.75%
- Estimated % Sweetness Equivalence in Citric Buffer at 4° C. (one experienced taster; Reb X 100 ppm): 5.5%
- Estimated % Sweetness Equivalence in Citric Buffer at RT (one experienced taster; Reb X 100 ppm): 5.0%
- Estimated % Sweetness Equivalence in Citric Buffer at 4° C. (one experienced taster; Reb X 200 ppm): 8.0%
- Estimated % Sweetness Equivalence in Citric Buffer at RT (one experienced taster; Reb X 200 ppm): 8.0%
- Estimated % Sweetness Equivalence in Citric Buffer at 4° C. (one experienced taster; Reb X 300 ppm): 11.0-12.0%
- Estimated % Sweetness Equivalence in Citric Buffer at RT (one experienced taster; Reb X 300 ppm): 12.0%
- Estimated % Sweetness Equivalence in Citric Buffer at 4° C. (one experienced taster; Reb X 400 ppm): 14.0-14.5%
- Estimated % Sweetness Equivalence in Citric Buffer at RT (one experienced taster; Reb X 400 ppm): 14.0-14.5%
- Estimated % Sweetness Equivalence in Citric Buffer at 4° C. (one experienced taster; Reb X 500 ppm): 15.5-16.0%
- Estimated % Sweetness Equivalence in Citric Buffer at RT (one experienced taster; Reb X 500 ppm): 15.5-16.0%
- Estimated % Sweetness Equivalence in Citric Buffer at 4° C. (one experienced taster; Reb X 600 ppm): 16.5-17.0%
- Estimated % Sweetness Equivalence in Citric Buffer at RT (one experienced taster; Reb X 600 ppm): 16.5-17.0%
- Sweetness intensity difference between RT and 4° C. (one experienced taster; Reb X concentration range, direct comparison with control sucrose at similar temperatures): no significant sweetness intensity difference
- Sweetness tasting quality (one experienced taster; all concentrations (12.5-600 ppm) in citric buffer): pleasant sweetness tasting quality with a slight delay of sweetness onset and no bitterness
- Off-flavors (one experienced taster; any Reb X concentrations in CB at 4° C., except at least ca. 300 ppm): No off-flavors
- Sweetness lingering (one experienced taster; at least ca. 300 ppm Reb X in CB at 4° C.): longer sweetness lingering
